Data reported in US20240287046A1, “COMPOUNDS AND RADIOLIGANDS FOR TARGETING NEUROTENSIN RECEPTOR AND USES THEREOF” (Full-Life Technologies HK Limited, priority 2022, published 2024).
Like-named read-outs stand apart in the source and are kept apart here.

Columns and labels:
human NTSR-1 = human NTSR-1 (Homo sapiens (Human), UniProt P30989); assay: radioligand competitive binding assay using ^177Lu labeled C-1 as reference radioligand; conditions: for IC50: Nonlin fit, single assay, HT-29 cells
Summary of the method: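 HT-29 cells expressing human NTSR-1 incubated with ¹⁷⁷Lu-C-1 (0.55 μCi/well) and test compound in RPMI-1640 + 0.25% BSA, 1 h at 37 °C (n=3). Unbound label removed by filtration, cell-bound radioactivity gamma-counted; IC50 from nonlinear regression of displacement.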

NTR1 = NTR1 (Homo sapiens (Human), UniProt P30989); conditions: cited from earlier work
Sequence of NTR1 (P30989 whole entry, species assumed): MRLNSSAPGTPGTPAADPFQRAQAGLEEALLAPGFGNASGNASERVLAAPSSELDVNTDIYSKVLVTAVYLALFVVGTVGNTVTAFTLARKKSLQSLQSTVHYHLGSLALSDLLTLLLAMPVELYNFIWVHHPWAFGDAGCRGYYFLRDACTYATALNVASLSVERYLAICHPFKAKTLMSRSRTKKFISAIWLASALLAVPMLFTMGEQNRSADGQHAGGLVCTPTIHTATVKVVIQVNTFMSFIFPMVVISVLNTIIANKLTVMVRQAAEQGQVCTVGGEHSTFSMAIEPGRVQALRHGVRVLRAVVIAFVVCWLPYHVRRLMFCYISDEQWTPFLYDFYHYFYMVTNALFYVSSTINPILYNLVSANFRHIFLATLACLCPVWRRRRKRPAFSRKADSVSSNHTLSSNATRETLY

Sequence of human NTSR-1 (P30989 whole entry): as the sequence (P30989 whole entry, species assumed) above

Relative Binding Affinity (human NTSR-1; Mean IC50 of C-1/Mean IC50 of the test compound): 13.7
IC50 (human NTSR-1; read-out: IC50 (nM) Mean): 2.05 nM
IC50 (human NTSR-1; read-out: LogIC50 Mean (converted)): 2.05 nM
SMILES: COc1cccc(OC)c1-c1cc(C(=O)NC2(C(=O)O)C3CC4CC(C3)CC2C4)nn1-c1ccc(C(=O)N(C)CCCN(C)C)cc1C(C)C (stereo not shown) [Compound C-3, reference compound]
binding affinity to NTR1 as an antagonist (NTR1): high binding affinity
